According to patent US6784198B1, “Arylmethyl-carbonylamino-thiazole derivatives and their use as antitumor agents” (Pharmacia Italia S.p.A., priority 1999, dated 2004):

- melting point: 174 to 176 °C
SMILES: CC(=O)Nc1nc(CC(=O)Nc2ncc(C(C)C)s2)cs1 [2-[2-(acetylamino)-1,3-thiazol-4-yl]-N-(5-isopropyl-1,3-thiazol-2-yl)acetamide]
